In brackets after ≈: the same amount, converted by molar mass.
Test system: Plasmodium falciparum
Test: In vitro inhibition of Plasmodium falciparum W2
Assay type: functional, organism-based

Row | SMILES | IC50 [µg/mL]
1 | C[C@@]12CC[C@H]3CC[C@](C)(c4ccccc4)C[C@]3(CO1)OO2 | 0.013 (≈ 0.0451 µM)
2 | C[C@@]12CC[C@H]3CC[C@@](C)(c4ccccc4)C[C@]3(CO1)OO2 | 0.132 (≈ 0.458 µM)
3 | C[C@@H]1CC[C@H]2[C@@H](C)C(=O)O[C@@H]3O[C@@]4(C)CC[C@@H]1[C@]32OO4 [ARTEMISININ] | 0.0042 (≈ 0.0149 µM)
